From patent publication US7405241B2, “Use of N2O in the treatment of post-ischemic brain cell deterioration” (Air Liquide Sante (International), priority 2003, dated 2008)

Assays:
[1] = tested on: glutamergic receptors for N-methyl-D-aspartate, NMDA; settings: in vitro, literature (Franks et al.; Jevtovic-Todorovic et al.; Yamakura and Harris); cited from earlier work
[2] = tested on: brain receptors of the NMDA type; experiment: Complementary examination of neurotoxic effects of xenon and N2O versus air on NMDA-type brain receptors (FIG. 4); assay type: in vivo
Method: Based on this observation, complementary examinations were carried out in order to determine the neurotoxic effects of the xenon and of the nitrous oxide (N2O), at various amounts, compared to air, on brain receptors of the NMDA type.

[3] = tested on: transient focal cerebral ischemia by middle cerebral artery occlusion (MCAO); experiment: Transient focal cerebral ischemia by middle cerebral artery occlusion (MCAO) in rats, infarct volume after gas inhalation; assay type: in vivo; settings: rat MCAO, compared to air (mixture No. 1); for post-ischemic volume of cortical infarction: FIG. 3b; for post-ischemic volume of striatal infarction: FIG. 3c; for post-ischemic volume of oedema: FIG. 3d
Method: On day 1, focal ischemia was induced in each of the rats by middle cerebral artery occlusion (MCAO), for a period of 1 h 30 minutes.
The transient focal cerebral ischemia by MCAO is obtained conventionally by introducing a flexible nylon thread 1, represented diagrammatically in FIG. 1 (length 6.5 mm, diameter 180 μm), a portion 2 of the proximal end of which has a diameter greater than that of the thread (length 3 mm, diameter 380 μm), into the vascular system of the rat, as far as the region of the ipsilateral hemisphere so as to cause an embolism therein, i.e. an ischemia.
Next, the rats are reperfused for 10 to 20 minutes, and are then made to inhale several mixtures of gases, namely: • mixture No. 1: air (control) • mixture No. 2: N2O (75% vol), the remainder being oxygen (25%) • mixture No. 3: xenon (50% vol), the remainder being oxygen (20 to 25%) and nitrogen (30 to 25%), respectively • mixture No. 4: xenon (75% vol), the remainder being oxygen (25%).
On day 2, i.e. 24 hours after reperfusion, the rats are killed, the brains are recovered and frozen, and thin sections 40 μm thick are cut and then stained with cresyl violet, as shown in FIG. 5.
The volume of neuronal death is calculated, from the sections obtained after staining, in a conventional manner using an appropriate, commercially available conventional program.
In fact, as shown diagrammatically in FIG. 2, the cerebral ischemia engenders, in general, in 24 hours, an infarction in the region which has been subjected to ischemia (penumbra), leading to neuronal death in the brain cells present in a considerable portion of this region.

| Compound | behaviour at NMDA receptors [1] | neuroprotection, comparison between doses ([2]; N2O at 75% by volume compared to N2O at 50%) | volume of deteriorated NMDA receptors ([2]; in vivo) | post-ischemic volume of cortical infarction [3] | post-ischemic volume of striatal infarction [3] | post-ischemic volume of oedema [3] | volume of deteriorated NMDA receptors ([2]; dose of 50% or 75% by volume, compared to control (air), FIG. 4) | neuroprotection, comparison between doses ([2]; xenon at 50% by volume compared to xenon at 75%) |
| --- | --- | --- | --- | --- | --- | --- | --- | --- |
| [N-]=[N+]=O [N2O, nitrous oxide] | low-affinity antagonists | more neuroprotective | smaller volume | decrease | decrease | decrease |  |  |
| [Xe] [xenon] | low-affinity antagonists |  |  | decrease | decrease | decrease | smaller volume | more neuroprotective |
